In ChEMBL document CHEMBL1158801, “Acylphloroglucinol derivatives from Mahurea palustris” (J Nat Prod, 2005):
Active and inactive are the calls of the source. The calls are words filed in the database; no cut-off is given here.

Each compound was assayed on Human immunodeficiency virus (assay: Inhibition of HIV reverse transcriptase at 50 uM).
Compound CC(C)=CCC1CC2(CC=C(C)C)C(=O)C(C(=O)CC(C)C)=C(O)OC2=C(C(CC(=O)O)c2ccccc2)C1(C)C (stereo not given) [MAHUREONE A] has a fold change (FC) of 2.

These compounds were tested against DNA polymerase beta (Homo sapiens, UniProt P06746) (assay: Inhibition of human recombinant DNA polymerase beta assessed as fluorescein-12-dCTP incorporation by fluorimetry).
In the case of CC(C)=CCC1CC2(CC=C(C)C)C(=O)C(C(=O)C(C)C)=C(O)OC2=C(C(CC(=O)O)c2ccccc2)C1(C)C (stereo not given), the Activity is reported as “inactive”. CCC(C)C(=O)C1=C(O)OC2=C(C(CC(=O)O)c3ccccc3)C(C)(C)C(CCC(C)(C)NC(C)=O)CC2(CC=C(C)C)C1=O (stereo not given) was tested, and the Activity was “inactive”. For CCC(C)C(=O)C1=C(O)OC2=C(C(CC(=O)O)c3ccccc3)C(C)(C)C(CCC(C)(C)O)CC2(CC=C(C)C)C1=O (stereo not given), the Activity was “inactive”. For CCC(C)C(=O)C1=C(O)OC2=C(C(CC(=O)O)c3ccccc3)C(C)(C)C(CCC(C)(C)OC(=O)C(F)(F)F)CC2(CC=C(C)C)C1=O (stereo not given), the Activity was “inactive”. Compound CC(C)=CCC1CC2(CC=C(C)C)C(=O)C(C(=O)CC(C)C)=C(O)OC2=C(C(CC(=O)O)c2ccccc2)C1(C)C (stereo not given) [MAHUREONE A] has an IC50 of 28 µM. With CCC(C)C(=O)C1=C(O)OC2=C(C(CC(=O)O)c3ccccc3)C(C)(C)C(CC=C(C)C)CC2(CC=C(C)C)C1=O (stereo not given) [MAHUREONE B] the IC50 was 73 µM. CCCC(CC(=O)O)C1=C2OC(O)=C(C(=O)CC(C)C)C(=O)C2(CC=C(C)C)CC(CC=C(C)C)C1(C)C (stereo not given) [MAHUREONE D] was tested, and the IC50 was 12 µM. For CCCC(CC(=O)O)C1=C2OC(O)=C(C(=O)C(C)CC)C(=O)C2(CC=C(C)C)CC(CC=C(C)C)C1(C)C (stereo not given) [MAHUREONE E], the IC50 was 342 µM. Compound Nc1ccn([C@H]2CC[C@@H](COP(=O)(O)OP(=O)(O)OP(=O)(O)O)O2)c(=O)n1 [ddCTP SODIUM] has an IC50 of 1.3 µM.
